Assay results taken from ChEMBL document CHEMBL4422633, “Antioxidant-Inspired Drug Discovery: Antitumor Metabolite Is Formed in Situ from a Hydroxycinnamic Acid Derivative upon Free-Radical Scavenging” (J Med Chem, 2019).
Activity calls are given as the source filed them. The rule behind the calls is not given here.

How the values were obtained:
[1] = Cytotoxicity against mouse L5178 cells assessed as reduction in cell viability after 72 hrs by MTT assay; format: functional, cell-based; settings: L5178, 72 h
[2] = Cytotoxicity against mouse L5178B1 cells transfected with pHa MDR1/A retrovirus assessed as reduction in cell viability after 72 hrs by MTT assay; format: functional, cell-based; settings: MDR1, 72 h
NCI-H460 [3] = assay: Cytotoxicity against human NCI-H460 cells assessed as reduction in cell viability after 72 hrs by MTT assay; format: functional, cell-based; settings: NCI-H460, 72 h
[4] = Cytotoxicity against human NCI-H460/R cells transfected with MDR assessed as reduction in cell viability after 72 hrs by MTT assay; format: functional, cell-based; settings: NCI-H460, 72 h
A549 [5] = assay: Cytotoxicity against human A549 cells assessed as reduction in cell viability after 72 hrs by MTT assay; format: functional, cell-based; settings: A549, 72 h
NCI-H661 [6] = assay: Cytotoxicity against human NCI-H661 cells assessed as reduction in cell viability after 72 hrs by MTT assay; format: functional, cell-based; settings: NCI-H661, 72 h
HaCaT [7] = assay: Cytotoxicity against human HaCaT cells assessed as reduction in cell viability after 72 hrs by MTT assay; format: cell-based
HeLa = assay: Cytotoxicity against human HeLa cells assessed as reduction in cell viability after 72 hrs by MTT assay; format: functional, cell-based
NCI-H460 [8] = assay: Induction of apoptosis in human NCI-H460 cells assessed as viable cells at 10 uM after 24 hrs by Annexin V/propidium iodide-staining based flow cytometry (reference value: 96.49 +/- 0.96%); format: functional; settings: NCI-H460, 24 h, read-out: Activity
[9] = Induction of apoptosis in human NCI-H460/R cells transfected with MDR assessed as viable cells at 10 uM after 24 hrs by Annexin V/propidium iodide-staining based flow cytometry (reference value: 95.76 +/- 2.87%); format: functional; settings: NCI-H460, 24 h, read-out: Activity
A549 [10] = assay: Induction of apoptosis in human A549 cells assessed as viable cells at 10 uM after 24 hrs by Annexin V/propidium iodide-staining based flow cytometry (reference value: 96.45 +/- 2.89%); format: functional; settings: A549, 24 h, read-out: Activity
NCI-H661 [11] = assay: Induction of apoptosis in human NCI-H661 cells assessed as viable cells at 10 uM after 24 hrs by Annexin V/propidium iodide-staining based flow cytometry (reference value: 96.16 +/- 0.96%); format: functional; settings: NCI-H661, 24 h, read-out: Activity
[12] = Induction of apoptosis in human HaCaT cells assessed as viable cells at 10 uM after 24 hrs by Annexin V/propidium iodide-staining based flow cytometry (reference value: 95.63 +/- 3.83%); format: cell-based; settings: read-out: Activity
NCI-H460 [13] = assay: Induction of apoptosis in human NCI-H460 cells assessed as early apoptotic cells at 10 uM after 24 hrs by Annexin V/propidium iodide-staining based flow cytometry (reference value: 0.45 +/- 0.01%); format: functional
[14] = Induction of apoptosis in human NCI-H460/R cells transfected with MDR assessed as early apoptotic cells at 10 uM after 24 hrs by Annexin V/propidium iodide-staining based flow cytometry (reference value: 0.22 +/- 0.01%); format: functional
A549 [15] = assay: Induction of apoptosis in human A549 cells assessed as early apoptotic cells at 10 uM after 24 hrs by Annexin V/propidium iodide-staining based flow cytometry (reference value: 0.48 +/- 0.01%); format: functional
NCI-H661 [16] = assay: Induction of apoptosis in human NCI-H661 cells assessed as early apoptotic cells at 10 uM after 24 hrs by Annexin V/propidium iodide-staining based flow cytometry (reference value: 0.31 +/- 0.01%); format: functional
HaCaT [17] = assay: Induction of apoptosis in human HaCaT cells assessed as early apoptotic cells at 10 uM after 24 hrs by Annexin V/propidium iodide-staining based flow cytometry (reference value: 0.23 +/- 0.01%); format: cell-based
NCI-H460 [18] = assay: Induction of apoptosis in human NCI-H460 cells assessed as late apoptotic cells at 10 uM after 24 hrs by Annexin V/propidium iodide-staining based flow cytometry (reference value: 0.93 +/- 0.04%); format: functional
[19] = Induction of apoptosis in human NCI-H460/R cells transfected with MDR assessed as late apoptotic cells at 10 uM after 24 hrs by Annexin V/propidium iodide-staining based flow cytometry (reference value: 0.84 +/- 0.01%); format: functional
A549 [20] = assay: Induction of apoptosis in human A549 cells assessed as late apoptotic cells at 10 uM after 24 hrs by Annexin V/propidium iodide-staining based flow cytometry (reference value: 1.54 +/- 0.03%); format: functional
NCI-H661 [21] = assay: Induction of apoptosis in human NCI-H661 cells assessed as late apoptotic cells at 10 uM after 24 hrs by Annexin V/propidium iodide-staining based flow cytometry (reference value: 0.95 +/- 0.03%); format: functional
HaCaT [22] = assay: Induction of apoptosis in human HaCaT cells assessed as late apoptotic cells at 10 uM after 24 hrs by Annexin V/propidium iodide-staining based flow cytometry (reference value: 2.26 +/- 0.09%); format: cell-based
NCI-H460 [23] = assay: Induction of apoptosis in human NCI-H460 cells assessed as necrotic cells at 10 uM after 24 hrs by Annexin V/propidium iodide-staining based flow cytometry (reference value: 2.13 +/- 0.02%); format: functional
[24] = Induction of apoptosis in human NCI-H460/R cells transfected with MDR assessed as necrotic cells at 10 uM after 24 hrs by Annexin V/propidium iodide-staining based flow cytometry (reference value: 3.17 +/- 0.13%); format: functional
A549 [25] = assay: Induction of apoptosis in human A549 cells assessed as necrotic cells at 10 uM after 24 hrs by Annexin V/propidium iodide-staining based flow cytometry (reference value: 1.52 +/- 0.05%); format: functional
NCI-H661 [26] = assay: Induction of apoptosis in human NCI-H661 cells assessed as necrotic cells at 10 uM after 24 hrs by Annexin V/propidium iodide-staining based flow cytometry (reference value: 2.58 +/- 0.05%); format: functional
HaCaT [27] = assay: Induction of apoptosis in human HaCaT cells assessed as necrotic cells at 10 uM after 24 hrs by Annexin V/propidium iodide-staining based flow cytometry (reference value: 1.88 +/- 0.02%); format: cell-based
NCI-H460 [28] = assay: DNA protective activity in human NCI-H460 cells assessed as reduction in H2AX expression at 10 uM after 24 hrs by alexa fluor 488-staining based flow cytometry; format: functional, cell-based
HaCaT [29] = assay: DNA protective activity in human HaCaT cells assessed as reduction in H2AX expression at 10 uM after 24 hrs by alexa fluor 488-staining based flow cytometry; format: functional, cell-based
Homo sapiens [30] = species on record: Homo sapiens; assay: DNA protective activity in human NCI-H460/R cells transfected with MDR assessed as increase in H2AX expression at 10 uM after 24 hrs by alexa fluor 488-staining based flow cytometry; format: functional, cell-based
NCI-H460 [31] = assay: Reduction in ROS generation in human NCI-H460 cells assessed as decrease in DHE positive cells at 10 uM after 24 hrs by DHE-staining based flow cytometry; format: functional, cell-based
A549 [32] = assay: Reduction in ROS generation in human A549 cells assessed as decrease in DHE positive cells at 10 uM after 24 hrs by DHE-staining based flow cytometry; format: functional, cell-based
NCI-H661 [33] = assay: Reduction in ROS generation in human NCI-H661 cells assessed as decrease in DHE positive cells at 10 uM after 24 hrs by DHE-staining based flow cytometry; format: functional, cell-based
Homo sapiens [34] = species on record: Homo sapiens; assay: Reduction in ROS generation in human NCI-H460/R cells transfected with MDR assessed as reduction in DHE positive cells at 10 uM after 24 hrs by DHE-staining based flow cytometry; format: functional, cell-based
HaCaT [35] = assay: Reduction in ROS generation in human HaCaT cells assessed as decrease in DHE positive cells at 10 uM after 24 hrs by DHE-staining based flow cytometry; format: functional, cell-based

## COC(=O)/C=C/c1cc(O)ccc1O
[1]
  IC50: 5.23 µM
[2]
  IC50: 12.4 µM
NCI-H460 [3]
  IC50: 3.77 µM
[4]
  IC50: 7.05 µM
A549 [5]
  IC50: 4.14 µM
NCI-H661 [6]
  IC50: 4.19 µM
HaCaT [7]
  IC50: 9.69 µM
HeLa
  IC50: 8.51 µM
NCI-H460 [8]
  viability at 10 µM: 86.6%
[9]
  viability at 10 µM: 89.7%
A549 [10]
  viability at 10 µM: 88.2%
NCI-H661 [11]
  viability at 10 µM: 89.4%
[12]
  viability at 24 h, 10 µM: 91%
NCI-H460 [13]
  Activity: 0.34%
[14]
  Activity: 0.16%
A549 [15]
  Activity: 2.36%
NCI-H661 [16]
  Activity: 0.49%
HaCaT [17]
  Activity: 0.5%
NCI-H460 [18]
  Activity: 5.1%
[19]
  Activity: 2.48%
A549 [20]
  Activity: 5.62%
NCI-H661 [21]
  Activity: 3.39%
HaCaT [22]
  Activity: 2.65%
NCI-H460 [23]
  Activity: 9.92%
[24]
  Activity: 7.71%
A549 [25]
  Activity: 3.78%
NCI-H661 [26]
  Activity: 6.69%
HaCaT [27]
  Activity: 5.9%
NCI-H460 [28]
  Activity: Active
HaCaT [29]
  Activity: Active
Homo sapiens [30]
  Activity: Active
NCI-H460 [31]
  Activity: Active
A549 [32]
  Activity: Active
NCI-H661 [33]
  Activity: Active
Homo sapiens [34]
  Activity: Active
HaCaT [35]
  Activity: Active
